ChEMBL document CHEMBL6109045, “Photosensitizer associated with efflux pump inhibitors as a strategy for photodynamic therapy against bacterial resistance” (2025)

Columns and labels:
Escherichia coli [1] = assay: Antibacterial activity against Escherichia coli ATCC 25922 assessed as reduction in bacterial growth at 20 uM in presence of 100 J/cm2 light irradiation by photosensitization assay; type: functional
Staphylococcus aureus [2] = assay: Antibacterial activity against Staphylococcus aureus ATCC 25923 assessed as reduction in bacterial growth at 20 uM in presence of 100 J/cm2 light irradiation by photosensitization assay; type: functional
Acinetobacter baumannii [3] = assay: Antibacterial activity against Acinetobacter baumannii ATCC BAA 747 assessed as reduction in bacterial growth at 2 uM in presence of 22.5 J/cm2 light irradiation by photosensitization assay; type: functional
Pseudomonas aeruginosa [4] = assay: Antibacterial activity against Pseudomonas aeruginosa ATCC 27853 assessed as reduction in bacterial growth at 50 ug/ml in presence of 97.65 J/cm2 light irradiation by photosensitization assay; type: functional; conditions: dose 50 µg/ml
Staphylococcus aureus [5] = assay: Antibacterial activity against Staphylococcus aureus ATCC 25923 assessed as reduction in bacterial growth in presence of 6 J/cm2 light irradiation by photosensitization assay; type: functional
Pseudomonas aeruginosa [6] = assay: Antibacterial activity against Pseudomonas aeruginosa ATCC 27853 assessed as reduction in bacterial growth at 50 ug/ml in presence of 58.4 J/cm2 light irradiation by photosensitization assay; type: functional; conditions: dose 50 µg/ml
Klebsiella aerogenes = assay: Antibacterial activity against Klebsiella aerogenes assessed as reduction in bacterial growth at 16 uM in presence of 54 J/cm2 light irradiation by photosensitization assay; type: functional
Escherichia coli [7] = assay: Antibacterial activity against Escherichia coli ATCC 25922 assessed as reduction in bacterial growth in presence of 6 J/cm2 light irradiation by photosensitization assay; type: functional
Staphylococcus aureus [8] = assay: Antibacterial activity against Staphylococcus aureus ATCC 25923 assessed as reduction in bacterial growth at 50 ug/ml in presence of 58.49 J/cm2 light irradiation by photosensitization assay; type: functional; conditions: dose 50 µg/ml
Bacillus subtilis = assay: Antibacterial activity against Bacillus subtilis assessed as reduction in bacterial growth at 2 uM in presence of 22.5 J/cm2 light irradiation by photosensitization assay; type: functional
Staphylococcus aureus [9] = assay: Antibacterial activity against Staphylococcus aureus ATCC 25923 assessed as reduction in bacterial growth at 5 ug/ml in presence of 97.65 J/cm2 light irradiation by photosensitization assay; type: functional; conditions: dose 5 µg/ml
Acinetobacter baumannii [10] = assay: Antibacterial activity against Acinetobacter baumannii ATCC 17978 assessed as reduction in bacterial growth at 10 uM in presence of 22.5 J/cm2 light irradiation by photosensitization assay; type: functional
Acinetobacter baumannii [11] = assay: Antibacterial activity against Acinetobacter baumannii ATCC 17978 assessed as reduction in bacterial growth at 2 uM in presence of 22.5 J/cm2 light irradiation by photosensitization assay; type: functional
Pseudomonas aeruginosa [12] = assay: Antibacterial activity against Pseudomonas aeruginosa ATCC 27853 assessed as reduction in bacterial growth at 10 uM in presence of 100 J/cm2 light irradiation by photosensitization assay; type: functional
Staphylococcus aureus [13] = assay: Antibacterial activity against Staphylococcus aureus ATCC 29213 assessed as reduction in bacterial growth at 8 uM in presence of 30 J/cm2 light irradiation by photosensitization assay; type: functional
Staphylococcus aureus [14] = assay: Antibacterial activity against methicillin-resistant Staphylococcus aureus ATCC 33591 assessed as reduction in bacterial growth at 1 uM in presence of 8 J/cm2 light irradiation by photosensitization assay; type: functional
Escherichia coli [15] = assay: Antibacterial activity against Escherichia coli assessed as reduction in bacterial growth at 8 uM in presence of 30 J/cm2 light irradiation by photosensitization assay; type: functional
Staphylococcus aureus [16] = assay: Antibacterial activity against Staphylococcus aureus ATCC 29213 assessed as reduction in bacterial growth at 0.25 uM in presence of 8 J/cm2 light irradiation by photosensitization assay; type: functional
Staphylococcus aureus [17] = assay: Antibacterial activity against methicillin-resistant Staphylococcus aureus ATCC 33591 assessed as reduction in bacterial growth at 8 uM in presence of 30 J/cm2 light irradiation by photosensitization assay; type: functional
Acinetobacter baumannii [18] = assay: Antibacterial activity against Acinetobacter baumannii ATCC 17978 assessed as reduction in bacterial growth at 20 uM in presence of 6 J/cm2 light irradiation by photosensitization assay; type: functional
Escherichia coli [19] = assay: Antibacterial activity against Escherichia coli K12 assessed as reduction in bacterial growth at 20 uM in presence of 6 J/cm2 light irradiation by photosensitization assay; type: functional
Staphylococcus aureus [20] = assay: Antibacterial activity against methicillin-resistant Staphylococcus aureus ATCC 33591 assessed as reduction in bacterial growth at 20 uM in presence of 6 J/cm2 light irradiation by photosensitization assay; type: functional
Escherichia coli [21] = assay: Antibacterial activity against Escherichia coli assessed as reduction in bacterial growth at 100 uM in presence of 100 J/cm2 light irradiation by photosensitization assay; type: functional
Escherichia coli [22] = assay: Antibacterial activity against Escherichia coli assessed as reduction in bacterial growth at 20 uM in presence of 80 J/cm2 light irradiation by photosensitization assay; type: functional, organism-based
Staphylococcus aureus [23] = assay: Antibacterial activity against Staphylococcus aureus assessed as reduction in bacterial growth at 20 uM in presence of 80 J/cm2 light irradiation by photosensitization assay; type: functional
Staphylococcus aureus [24] = assay: Antibacterial activity against Staphylococcus aureus MCC 2408 assessed as reduction in bacterial growth at 50 ug/ml in presence of 58.49 J/cm2 light irradiation by photosensitization assay; type: functional; conditions: dose 50 µg/ml
Pseudomonas aeruginosa [25] = assay: Antibacterial activity against Pseudomonas aeruginosa ATCC 27853 assessed as reduction in bacterial growth at 10 to 20 ug/ml in presence of 18 J/cm2 light irradiation by photosensitization assay; type: functional; conditions: dose 10-20 µg/ml
Enterococcus faecalis [26] = assay: Antibacterial activity against Enterococcus faecalis assessed as reduction in bacterial growth at 16 uM in presence of 54 J/cm2 light irradiation by photosensitization assay; type: functional
Staphylococcus aureus [27] = assay: Antibacterial activity against Staphylococcus aureus MCC 2408 assessed as reduction in bacterial growth at 0.62 ug/ml in presence of 18 J/cm2 light irradiation by photosensitization assay; type: functional; conditions: dose 0.62 µg/ml
Pseudomonas aeruginosa [28] = assay: Antibacterial activity against Pseudomonas aeruginosa ATCC 27853 assessed as reduction in bacterial growth at 16 uM in presence of 54 J/cm2 light irradiation by photosensitization assay; type: functional
Staphylococcus aureus [29] = assay: Antibacterial activity against Staphylococcus aureus MCC 2408 assessed as reduction in bacterial growth at 400 uM in presence of 72 J/cm2 light irradiation by photosensitization assay; type: functional
Pseudomonas aeruginosa [30] = assay: Antibacterial activity against Pseudomonas aeruginosa ATCC 27853 assessed as reduction in bacterial growth at 400 uM in presence of 72 J/cm2 light irradiation by photosensitization assay; type: functional
Staphylococcus aureus [31] = assay: Antibacterial activity against Staphylococcus aureus […] assessed as reduction in bacterial growth at 64 ug/ml in presence of 18 J/cm2 light irradiation by photosensitization assay; type: functional; conditions: dose 64 µg/ml
Pseudomonas aeruginosa [32] = assay: Antibacterial activity against Pseudomonas aeruginosa ATCC 27853 assessed as reduction in bacterial growth at 7000 ug/ml in presence of 18 J/cm2 light irradiation by photosensitization assay; type: functional; conditions: dose 7000 µg/ml
Staphylococcus aureus [33] = assay: Antibacterial activity against Staphylococcus aureus MCC 2408 assessed as reduction in bacterial growth at 16 uM in presence of 54 J/cm2 light irradiation by photosensitization assay; type: functional
Pseudomonas aeruginosa [34] = assay: Antibacterial activity against Pseudomonas aeruginosa ATCC 27853 assessed as reduction in bacterial growth at 60 ug/ml in presence of 100 J/cm2 light irradiation by photosensitization assay; type: functional; conditions: dose 60 µg/ml
Staphylococcus aureus [35] = assay: Antibacterial activity against Staphylococcus aureus ATCC 29213 assessed as reduction in bacterial growth at 5 uM in presence of 18 J/cm2 light irradiation by photosensitization assay; type: functional
Enterococcus faecalis [36] = assay: Antibacterial activity against Staphylococcus aureus ATCC 29212 assessed as reduction in bacterial growth at 14 uM in presence of 25 J/cm2 light irradiation by photosensitization assay; type: functional
Staphylococcus aureus [37] = assay: Antibacterial activity against Staphylococcus aureus assessed as reduction in bacterial growth at 200 ug/ml in presence of 180 J/cm2 light irradiation by photosensitization assay; type: functional; conditions: dose 200 µg/ml
Staphylococcus aureus [38] = assay: Antibacterial activity against Staphylococcus aureus ATCC 29213 assessed as reduction in bacterial growth at 300 ug/ml in presence of 12 J/cm2 light irradiation by photosensitization assay; type: functional; conditions: dose 300 µg/ml

O=S(=O)(O)c1ccc(-c2c3nc(c(-c4ccc(S(=O)(=O)O)cc4)c4ccc([nH]4)c(-c4ccc(S(=O)(=O)O)cc4)c4nc(c(-c5ccc(S(=O)(=O)O)cc5)c5ccc2[nH]5)C=C4)C=C3)cc1
log(activity) (Escherichia coli [1]): 7
log(activity) (Staphylococcus aureus [2]): 7

Cc1cc2nc3ccc(N(C)C)cc3[s+]c2cc1N.[Cl-] [TOLONIUM CHLORIDE]
log(activity) (Acinetobacter baumannii [3]): 3
log(activity) (Pseudomonas aeruginosa [4]): 2.36
log(activity) (Staphylococcus aureus [5]): 5.83
log(activity) (Pseudomonas aeruginosa [6]): 2.2
log(activity) (Klebsiella aerogenes): >8
log(activity) (Escherichia coli [7]): 0.08
log(activity) (Staphylococcus aureus [8]): 2.21
log(activity) (Bacillus subtilis): >6
log(activity) (Staphylococcus aureus [9]): 2.66

CCNc1cc2[s+]c3cc(NCC)c(C)cc3nc2cc1C.[Cl-]
log(activity) (Acinetobacter baumannii [10]): 3
log(activity) (Acinetobacter baumannii [11]): 6
log(activity) (Pseudomonas aeruginosa [12]): 3

Cc1cc(O)c2c(=O)c3c(O)cc(O)c4c5c(O)cc(O)c6c(=O)c7c(O)cc(C)c8c1c2c(c34)c(c78)c65 [HYPERICIN]
log(activity) (Staphylococcus aureus [13]): >6
log(activity) (Staphylococcus aureus [14]): >0.6
log(activity) (Escherichia coli [15]): 0.06
log(activity) (Staphylococcus aureus [16]): >6
log(activity) (Staphylococcus aureus [17]): >0.6

CN(CCN(C)c1ccc2nc3ccc(N(C)C)cc3[s+]c2c1)Cc1ccc(-c2cc3cc([N+](=O)[O-])ccc3[nH]2)cc1.Cl
log(activity) (Acinetobacter baumannii [18]): 5
log(activity) (Escherichia coli [19]): 4
log(activity) (Staphylococcus aureus [20]): 3

C[n+]1cccc(-c2c3nc(c(-c4ccc[n+](C)c4)c4ccc([nH]4)c(-c4ccc[n+](C)c4)c4nc(c(-c5ccc[n+](C)c5)c5ccc2[nH]5)C=C4)C=C3)c1
log(activity) (Escherichia coli [21]): 6
log(activity) (Escherichia coli [22]): 7

CN(CCCOc1ccccc1NC(=O)Nc1ccc2ccccc2c1)CCN(C)c1ccc2nc3ccc(N(C)C)cc3[s+]c2c1.[Cl-]
log(activity) (Acinetobacter baumannii [18]): 3
log(activity) (Escherichia coli [19]): 3
log(activity) (Staphylococcus aureus [20]): 4

C[n+]1ccc(-c2c3nc(c(-c4cc[n+](C)cc4)c4ccc([nH]4)c(-c4cc[n+](C)cc4)c4ccc([nH]4)c(-c4cc[n+](C)cc4)c4nc2C=C4)C=C3)cc1 [TMPYP4]
log(activity) (Staphylococcus aureus [23]): 7
log(activity) (Escherichia coli [1]): 7
log(activity) (Staphylococcus aureus [2]): 7

CN(C)c1ccc2nc3ccc(N(C)C)cc3[s+]c2c1.[Cl-] [METHYLENE BLUE ANHYDROUS]
log(activity) (Staphylococcus aureus [24]): 2.38
log(activity) (Pseudomonas aeruginosa [25]): 6
log(activity) (Enterococcus faecalis [26]): 0.7
log(activity) (Staphylococcus aureus [27]): 6
log(activity) (Pseudomonas aeruginosa [28]): 1.1
log(activity) (Staphylococcus aureus [29]): 7.3
log(activity) (Pseudomonas aeruginosa [30]): 4.1
log(activity) (Staphylococcus aureus [31]): 6
log(activity) (Pseudomonas aeruginosa [32]): 6
log(activity) (Staphylococcus aureus [33]): 5

O=[N+]([O-])c1ccc(-c2c3nc(c(-c4ccc([N+](=O)[O-])cc4)c4ccc([nH]4)c(-c4ccc([N+](=O)[O-])cc4)c4nc(c(-c5ccc([N+](=O)[O-])cc5)c5ccc2[nH]5)C=C4)C=C3)cc1
log(activity) (Pseudomonas aeruginosa [34]): 2

CN(C)c1ccc2nc3ccc(N4CCN(CCCOc5ccccc5NC(=O)Nc5ccc6ccccc6c5)CC4)cc3[s+]c2c1.[Cl-]
log(activity) (Escherichia coli [19]): 3
log(activity) (Staphylococcus aureus [20]): 3

COc1cc(/C=C/C(=O)CC(=O)/C=C/c2ccc(O)c(OC)c2)ccc1O [CURCUMIN]
log(activity) (Staphylococcus aureus [35]): 7
log(activity) (Enterococcus faecalis [36]): 10

CC1=C(CCC(=O)O)c2cc3[nH]c(cc4nc(cc5[nH]c(cc1n2)c(C)c5C(C)O)C(C)=C4C(C)O)c(C)c3CCC(=O)O (stereo not drawn) [HEMATOPORPHYRIN]
log(activity) (Escherichia coli [21]): <6
log(activity) (Staphylococcus aureus [37]): >6

Cc1cc(N(C)C)cc2[s+]c3cc(N(C)C)cc(C)c3nc12.[Cl-]
log(activity) (Staphylococcus aureus [38]): 99%

C1=Cc2nc1c(-c1ccccc1)c1ccc([nH]1)c(-c1ccccc1)c1nc(c(-c3ccccc3)c3ccc([nH]3)c2-c2ccccc2)C=C1
log(activity) (Escherichia coli [1]): 3
log(activity) (Staphylococcus aureus [2]): 5

CN(CCN(C)c1ccc2nc3ccc(N(C)C)cc3[s+]c2c1)C(=O)c1ccc(-c2cc3cc([N+](=O)[O-])ccc3[nH]2)cc1.Cl
log(activity) (Acinetobacter baumannii [18]): 4
log(activity) (Escherichia coli [19]): 6
log(activity) (Staphylococcus aureus [20]): 6
